In patent US5837483A, “Enzymatic method for producing N-formyl-α-L-aspartyl-L-phenylalanine methyl ester” (Holland Sweetener Company V.o.F., priority 1996, dated 1998):
Residues, ends and D or L forms follow the SMILES beside them. *: point of attachment. For = O=C*

Tests used:
[1] = Partition of F-APM between water-immiscible organic solvent and aqueous phase (distribution ratio, eq. 1); assay type: physicochemical; conditions: for PF-APM / pKa: 40° C; for pKa: read-out: pKF-APM
Source text: The water-immiscible solvents of which distribution ratios (DF-APM) described by following equation (1) are 10^-2 or more at pH=6.0 are suitable for effective the extraction of the F-APM produced to the organic phase: [formula] wherein
PF-APM =(CF-APM)org /(CF-APM)aq (1a);
KF-APM ={(CF-APM.spsb.-)aq ×CH.spsb.+
(CF-APM)org : concentration of F-APM contained in the organic phase after the extraction of F-APM;
(CF-APM)aq : concentration of F-APM remained in the aqueous phase after the extraction of F-APM;
(CF-APM.spsb.-)aq : concentration of F-APM^- remained in the aqueous phase after the extraction of F-APM;
CH.spsb.+ : concentration of H^+ remained in the aqueous phase after the extraction of F-APM.
Above PF-APM and KF-APM were obtained by following partition model of F-APM described by following scheme 1. [drawing 1]
Furthermore, above equation (1) was obtained by relation described by following equation (3). [formula]
(§1) 10 ml of organic solvent saturated by water and 10 ml of aqueous solution saturated by organic solvent were entered into sample tube, and 50 mM of F-L-Asp was dissolved in said organic solvent saturated by water and 50 mM of F-APM was dissolved in said aqueous solution saturated by organic solvent.
As a value showing the ability of organic solvent to extract F-APM from aqueous phase, DF-ApM described by equation (1) were used.
(§2) Measurements of these PF-APM and PF-L-Asp were carried out at 40° C.
(§3) DF-APM values of many kinds of organic solvent are shown in Table 1 wherein methyl isobutyl ketone, n-butylformate and butyl acetate are shown as comparative examples, and DF-L-Asp values of many kinds of organic solvent are shown in Table 2.

[2] = Batchwise biphase condensation reaction: F-APM in aqueous and organic phase by HPLC; assay type: physicochemical; conditions: tributyl phosphoric acid/aqueous enzyme solution pH=6.5, 40° C
Description: This example was carried out by batchwise operation in biphase system of aqueous phase and organic phase.
An enzyme aqueous solution of pH=6.5 containing 1.131 g/l of thermoase, 0.1M buffer agent (MES) and 0.01M CaCl2, and substrate tributyl phosphoric acid solution containing 88.15 mM of F-L-Asp and 120.97 mM of L-PM were prepared separately and were maintained at 40° C. Both 5 ml's of two solutions were mixed and the condensation reaction between F-L-Asp and L-PM was started. Concentrations of F-L-Asp, L-PM and F-APM were analyzed by HPLC.

[3] = Partition of F-L-Asp between water-immiscible organic solvent and aqueous phase (distribution ratio, eq. 2); assay type: physicochemical; conditions: for PF-A-Asp / pKa: 40° C
Source text: Moreover, organic solvents of which distribution ratios of F-L-Asp (DF-L-Asp) described by following equation (2) are 10^-4 or less at pH=6.0 are suitable for increase of conversion ratios to F-APM because large amount of F-L-Asp can be distributed in aqueous phase: [formula] wherein
PF-L-Asp =(CF-L-Asp)org /(CF-L-Asp)aq(2a);
KF-L-Asp1 ={(Cf-L-Asp.spsb.-)aq ×CH.spsb.+
KF-l=Asp2 ={(CF-L-Asp.spsb.2-)aq ×CH.spsb.+
}/(CF-L-Asp.spsb.-)aq (2c);
(CF-L-Asp)org : concentration of F-L-Asp contained in the organic phase after the extraction of F-APM;
(CF-L-Asp)aq : concentration of F-L-Asp remained in the aqueous phase after the extraction of F-APM;
(CF-L-Asp.spsb.-)aq : concentration of F-L-Asp^- remained in the aqueous phase after the extraction of F-APM;
CH.spsb.+ : concentration of H^+ remained in the aqueous phase after the extraction of F-APM;
(CF-L-Asp.spsb.2-)aq : concentration of F-L-Asp^2- remained in the aqueous phase after the extraction of F-APM.
PF-L-Asp, KF-L-Asp1 and KF-L-Asp2 were obtained by the partition model of F-L-Asp described by following scheme 2: [drawing 2]
Furthermore, above equation (2) was obtained by following equation (4): [formula]
as §1
As a value showing the ability to suppress transfer of F-L-Asp from aqueous phase to organic phase, DF-L-Asp described by equation (2) was used.
as §2, §3

[4] = relative to cane sugar; cited from earlier work
[5] = butylacetate/water (comparative)
[6] = methyl ethyl ketone/water, pH = 5
[7] = methyl ethyl ketone/water, pH = 6
[8] = methyl ethyl ketone/water, pH = 7
[9] = methyl isobutyl ketone/water (comparative)
[10] = n-butylformate/water (comparative)
[11] = tri-butylphosphoric acid, n-amylalcohol, t-amylalcohol, 1-butanol, methyl ethyl ketone and isobutanol, pH=6.0
[12] = tri-butylphosphoric acid/water, pH = 5
[13] = tri-butylphosphoric acid/water, pH = 6
[14] = tri-butylphosphoric acid/water, pH = 7

COC(=O)[C@H](Cc1ccccc1)NC(=O)[C@H](CC(=O)O)NC=O [F-APM, N-formyl-α-L-aspartyl-L-phenylalanine methyl ester] (For-Asp-Phe-OMe)
PF-APM ([1]; 1-butanol/water): 7.13
pKa ([1]; 1-butanol/water): 4.17
DF-APM ([1]; 1-butanol/water, pH = 5): 0.919
DF-APM ([1]; 1-butanol/water, pH = 6): 0.101
DF-APM ([1]; 1-butanol/water, pH = 7): 0.0105
PF-APM [1, 5]: 0.47
pKa [1, 5]: 4.02
DF-APM ([1]; butylacetate/water (comparative), pH = 5): 0.045
DF-APM ([1]; butylacetate/water (comparative), pH = 6): 0.0049
DF-APM ([1]; butylacetate/water (comparative), pH = 7): 0.00049
PF-APM ([1]; methyl ethyl ketone/water): 2.14
pKa ([1]; methyl ethyl ketone/water): 4.61
DF-APM [1, 6]: 0.556
DF-APM [1, 7]: 0.087
DF-APM [1, 8]: 0.0087
PF-APM [1, 9]: 0.80
pKa [1, 9]: 4.01
DF-APM ([1]; methyl isobutyl ketone/water (comparative), pH = 5): 0.074
DF-APM ([1]; methyl isobutyl ketone/water (comparative), pH = 6): 0.0080
DF-APM ([1]; methyl isobutyl ketone/water (comparative), pH = 7): 0.00082
PF-APM ([1]; n-amylalcohol/water): 3.70
pKa ([1]; n-amylalcohol/water): 4.22
DF-APM ([1]; n-amylalcohol/water, pH = 5): 0.527
DF-APM ([1]; n-amylalcohol/water, pH = 6): 0.0604
DF-APM ([1]; n-amylalcohol/water, pH = 7): 0.0061
PF-APM [1, 10]: 0.64
pKa [1, 10]: 4.17
DF-APM ([1]; n-butylformate/water (comparative), pH = 5): 0.083
DF-APM ([1]; n-butylformate/water (comparative), pH = 6): 0.0091
DF-APM ([1]; n-butylformate/water (comparative), pH = 7): 0.0012
PF-APM ([1]; t-amylalcohol/water): 6.89
pKa ([1]; t-amylalcohol/water): 4.21
DF-APM ([1]; t-amylalcohol/water, pH = 5): 0.866
DF-APM ([1]; t-amylalcohol/water, pH = 6): 0.107
DF-APM ([1]; t-amylalcohol/water, pH = 7): 0.0111
DF-APM values at pH=6.0 [1, 11]: ≥ 1×10^-2
PF-APM ([1]; tri-butylphosphoric acid/water): 13.0
pKa ([1]; tri-butylphosphoric acid/water): 4.01
DF-APM [1, 12]: 1.20
DF-APM [1, 13]: 0.13
DF-APM [1, 14]: 0.0133
transfer of F-APM produced to the organic phase [2]: all F-APM produced were transferred to the organic phase

O=CN[C@@H](CC(=O)O)C(=O)O [F-L-Asp, N-formyl-L-aspartic acid]
PF-A-Asp ([3]; 1-butanol/water): 0.424
pKa ([3]; 1-butanol/water, read-out: pKF-L-Asp1): 2.99
pKa ([3]; 1-butanol/water, read-out: pKF-L-Asp2): 4.83
DF-L-Asp ([3]; 1-butanol/water, pH = 5): 16.6 ×10^-4
DF-L-Asp ([3]; 1-butanol/water, pH = 6): 0.262 ×10^-4
DF-L-Asp ([3]; 1-butanol/water, pH = 7): 0.00278 ×10^-4
PF-A-Asp ([3]; isobutanol/water): 0.356
pKa ([3]; isobutanol/water, read-out: pKF-L-Asp1): 3.11
pKa ([3]; isobutanol/water, read-out: pKF-L-Asp2): 4.44
DF-L-Asp ([3]; isobutanol/water, pH = 5): 9.9 ×10^-4
DF-L-Asp ([3]; isobutanol/water, pH = 6): 0.123 ×10^-4
DF-L-Asp ([3]; isobutanol/water, pH = 7): 0.00125 ×10^-4
PF-A-Asp ([3]; methyl ethyl ketone/water): 0.296
pKa ([3]; methyl ethyl ketone/water, read-out: pKF-L-Asp1): 3.43
pKa ([3]; methyl ethyl ketone/water, read-out: pKF-L-Asp2): 4.43
DF-L-Asp [3, 6]: 16.0 ×10^-4
DF-L-Asp [3, 7]: 0.201 ×10^-4
DF-L-Asp [3, 8]: 0.00206 ×10^-4
PF-A-Asp ([3]; n-amylalcohol/water): 0.166
pKa ([3]; n-amylalcohol/water, read-out: pKF-L-Asp1): 2.95
pKa ([3]; n-amylalcohol/water, read-out: pKF-L-Asp2): 4.17
DF-L-Asp ([3]; n-amylalcohol/water, pH = 5): 1.9 ×10^-4
DF-L-Asp ([3]; n-amylalcohol/water, pH = 6): 0.0216 ×10^-4
DF-L-Asp ([3]; n-amylalcohol/water, pH = 7): 0.00021 ×10^-4
PF-A-Asp ([3]; t-amylalcohol/water): 0.498
pKa ([3]; t-amylalcohol/water, read-out: pKF-L-Asp1): 3.16
pKa ([3]; t-amylalcohol/water, read-out: pKF-L-Asp2): 4.63
DF-L-Asp ([3]; t-amylalcohol/water, pH = 5): 21.4 ×10^-4
DF-L-Asp ([3]; t-amylalcohol/water, pH = 6): 0.294 ×10^-4
DF-L-Asp ([3]; t-amylalcohol/water, pH = 7): 0.00305 ×10^-4
pKa ([3]; tri-butyl phosphoric acid/water, read-out: pKF-L-Asp1): 3.18
pKa ([3]; tri-butyl phosphoric acid/water, read-out: pKF-L-Asp2): 4.44
DF-L-Asp values at pH=6.0 [3, 11]: ≤ 1×10^-4
PF-A-Asp ([3]; tri-butylphosphoric acid/water): 0.558
DF-L-Asp [3, 12]: 18.2 ×10^-4
DF-L-Asp [3, 13]: 0.226 ×10^-4
DF-L-Asp [3, 14]: 0.00231 ×10^-4

COC(=O)[C@H](Cc1ccccc1)NC(=O)[C@@H](N)CC(=O)O [aspartame, α-L-Aspartyl-L-phenylalanine methyl ester] (H-Asp-Phe-OMe)
sweetness of cane sugar [4]: about 200 times
